{
  "source": "patent US20210393932A1",
  "about": "“DERMAL PATCHES AND GLASS SWABS FOR APPLICATION OF TOPICAL IMMUNOSENSITIZERS” (Squarex, LLC, priority 2020, published 2021)",
  "key": {"[1]": {"test_system": "PBMCs in the presence of HSV-1", "assay": "Immune gene expression and proliferation of PBMCs from subjects dosed once with SADBE", "assay_type": "cell-based, human", "from_the_text": "Introduction: Differences in immune characteristics, including immune gene expression by peripheral blood mononuclear cells (PBMCs), correlating with herpes labialis and good or poor immune control of herpes simplex virus type 1 (HSV-1) (i.e., frequency of herpes labialis episodes), and how these characteristics change after dosing with squaric acid dibutyl ester (SADBE), were investigated. Methods: PBMCs were collected from persons positive for IgG against HSV-1 and having frequent (self-reported 6 or more episodes in the prior 12 months), infrequent (1 or 2 episodes in the prior 12 months), or no herpes labialis outbreaks in the prior 12 months. The PBMCs were tested for proliferation against HSV-1 and a fungal antigen (Candida) and immune gene expression in the presence of HSV-1 and Candida. On day 1 after blood collection the subjects with frequent outbreaks were dosed topically on the arm once with 2% SADBE in DMSO, and their PBMCs were collected and tested 2 weeks later and 8 weeks later.\n(§1) Doses were applied by dipping a cotton swab in a 1-ml vial of liquid study medication, then swabbing a spot on the inner aspect of the upper arm over an area of about 10 to 15 mm diameter encircled by petroleum jelly. After application, the spot was covered by TEGADERM™ dressing, and subjects were advised to remove the dressing and wipe the spot with a wet cloth 3 hours later. The weight of the vial of study medication with the vial standing in it was measured immediately before and immediately after dosing each subject. The difference was the net mass of drug applied. In most cases, 10 mg to 20 mg of drug solution was applied to the arm."}, "[2]": {"test_system": "herpes labialis outbreaks", "assay": "Phase 2 multi-center placebo-controlled study of single dose SADBE in recurrent herpes labialis", "assay_type": "in vivo, human", "method": "After institutional review board approval and written informed consent, this study was conducted at five centers in subjects with four or more herpes labialis episodes in the previous 12 months. Subjects were randomized to receive either (1) one dose of 2% SADBE in DMSO on day 1, (2) 2% SADBE on day 1 and a second lower dose (0.5%) “booster” on day 22, or (3) dimethylsulfoxide (DMSO) vehicle only on days 1 and 22. All subjects were followed for 1 year.\nas §1, with “blindly labeled 1 ml” for “1-ml”"}, "[3]": {"details": "single topical dose of 2% SADBE in DMSO to the arm, 56 days after dose vs day 1"}},
  "data": [
    {"smiles": "CCCCOc1c(OCCCC)c(=O)c1=O", "note": "[SADBE, squaric acid dibutyl ester]", "values": [
      {"measurement": "PBMC gene expression or proliferation measures vs day 1", "setting": "[1]; 2 weeks after the one dose of 2% SADBE", "value": "did not differ"},
      {"measurement": "IFNG expression in PBMCs in the presence of HSV-1 virus", "setting": "[1]; [3]", "value": "increasing"},
      {"measurement": "IL5 expression in PBMCs in the presence of HSV-1 virus", "setting": "[1]; [3]", "value": "decreasing"},
      {"measurement": "time to next outbreak from day 43 to 121", "setting": "[2]; 1-dose group (2% SADBE in DMSO day 1) vs placebo, p=0.024", "value": "superior to the placebo group"},
      {"measurement": "proportion of subjects with an outbreak in days 43-121", "setting": "[2]; 1-dose group (9/39), placebo 46%, p=0.036", "value": 23, "unit": "%"},
      {"measurement": "mean number of outbreaks in days 43-121", "setting": "[2]; 1-dose group, ± standard error, placebo 0.610±0.068, p=0.011", "value": "0.231±0.125"},
      {"measurement": "average number of moderate or severe outbreaks over days 1-365", "setting": "[2]; 1-dose, placebo 1.341±1.76, p=0.04", "value": "0.641±0.931"},
      {"measurement": "average number of moderate or severe outbreaks over days 43-121", "setting": "[2]; 1 dose of SADBE, placebo 0.390±0.703, p=0.04", "value": "0.128±0.339"},
      {"measurement": "outbreak measures vs placebo, 2-dose group", "setting": "[2]; 2% SADBE day 1 and 0.5% booster day 22", "value": "superior to placebo these same measures, but not significantly so"},
      {"measurement": "severity of administration site reactions (most common adverse event)", "setting": "[2]; topical 2% SADBE", "value": "all mild or moderate"},
      {"measurement": "time to resolution of administration site reactions", "setting": "[2]; topical 2% SADBE", "value": "≤ 3", "unit": "months"}
    ]}
  ]
}
